Data published in paper PMC12775434, “Ultra-large virtual screening unveils potent agonists of the neuromodulatory orphan receptor GPR139” (Nature Communications, 2025).
“And” between values parts separate entries of the source, which are not always exact repeats. Equal values may be shown once.

Experiments:
Type in all cases: cell-based
[1] = biological target: T1, human muscarinic acetylcholine M1 receptor (M1R) (Homo sapiens, UniProt P11229); test: Ca2+ mobilization counter-screen in M1R-CHOk1 cells; details: individual replicates (Supplementary Figure 5);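 further: 10 µM test compound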
T1 sequence (P11229 1-460): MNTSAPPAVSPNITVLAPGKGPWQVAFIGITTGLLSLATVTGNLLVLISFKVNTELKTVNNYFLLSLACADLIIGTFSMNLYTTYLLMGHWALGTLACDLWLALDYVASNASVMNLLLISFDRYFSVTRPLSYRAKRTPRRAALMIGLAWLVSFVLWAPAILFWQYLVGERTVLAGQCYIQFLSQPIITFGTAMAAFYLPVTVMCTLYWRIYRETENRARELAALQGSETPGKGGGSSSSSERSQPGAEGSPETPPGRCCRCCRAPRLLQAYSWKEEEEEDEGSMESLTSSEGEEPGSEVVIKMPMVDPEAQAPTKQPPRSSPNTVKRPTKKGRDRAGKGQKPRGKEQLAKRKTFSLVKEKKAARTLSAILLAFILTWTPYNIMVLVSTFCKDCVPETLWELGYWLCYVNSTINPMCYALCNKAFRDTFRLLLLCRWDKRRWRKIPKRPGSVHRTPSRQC
Method in brief: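 Fluorescence (ex 485 nm, em 525 nm) recorded at 37 °C after automated compound addition to CHO-K1 cells stably expressing M1R. Cells were dye-loaded with 2 µM Fluo-4 AM for 1 h at 37 °C, with 2.5 mM probenecid present; final DMSO at most 0.3%.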

[2] = biological target: T2, GPR139 (Homo sapiens, UniProt Q6DWJ6); test: Ca2+ mobilization assay, antagonist mode (EC80 800 nM Lundbeck Cmp 1a after 20 min preincubation), GPR139-CHOk1; details: individual replicates (Supplementary Figure 4)
T2 sequence (Q6DWJ6 1-353): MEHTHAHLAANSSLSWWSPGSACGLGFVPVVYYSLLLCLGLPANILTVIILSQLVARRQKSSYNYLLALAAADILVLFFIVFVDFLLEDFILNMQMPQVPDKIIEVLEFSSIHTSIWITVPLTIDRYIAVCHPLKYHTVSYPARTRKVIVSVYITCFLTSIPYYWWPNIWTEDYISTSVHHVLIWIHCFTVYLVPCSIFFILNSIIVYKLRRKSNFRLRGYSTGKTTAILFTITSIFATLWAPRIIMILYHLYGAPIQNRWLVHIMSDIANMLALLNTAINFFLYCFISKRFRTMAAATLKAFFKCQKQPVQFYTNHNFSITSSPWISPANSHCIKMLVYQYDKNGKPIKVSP
Method in brief: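 Antagonist mode: 800 nM (EC80) reference agonist Lundbeck Cmp 1a added following 20 min pre-incubation with 10 µM compound. GPR139-CHOk1 cells, Fluo-4 dye, probenecid-containing HEPES buffer pH 7.4; intracellular Ca2+ measured at 37 °C (ex 485, em 525 nm).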

[3] = biological target: T2, GPR139; test: Ca2+ mobilization assay, agonist mode, stable GPR139-CHOk1 cell line; details: for EC50 / Emax: Supplementary Table 2, mean ± SEM; for EC50: read-out: pEC50 Ca2+ (converted); for Emax: normalized to Lundbeck Cmp 1a, read-out: Emax (%) Ca2+
Method in brief: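 Agonist activity of compounds is assessed in stably transfected CHO-K1 cells using the calcium dye Fluo-4 at 37 °C in HEPES-buffered HBSS (pH 7.4). Efficacy is expressed relative to the reference agonist Lundbeck Cmp 1a, set as 100%.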

[4] = Agonist mode, individual replicates (Supplementary Figure 4)
[5] = log [Compound] M = -4.5, individual replicate columns
[6] = log [Compound] M = -5.0, individual replicate columns
[7] = log [Compound] M = -5.5, individual replicate columns
[8] = log [Compound] M = -6.0, individual replicate columns
[9] = log [Compound] M = -6.5, individual replicate columns
[10] = log [Compound] M = -7.0, individual replicate columns
[11] = log [Compound] M = -7.5, individual replicate columns
[12] = log [Compound] M = -8.0, individual replicate columns
[13] = log [Compound] M = -8.5, individual replicate columns
[14] = log [Compound] M = -9.0, individual replicate columns

Compound	Ca2+ signal (% of Carbachol) [1]	Ca2+ signal (% of Cmp 1a) [2]	Ca2+ signal (% of Cmp 1a) [3, 4]	EC50 [3]	Emax [3]	Ca2+ signal (% of Cmp 1a) [3, 5]	Ca2+ signal (% of Cmp 1a) [3, 6]	Ca2+ signal (% of Cmp 1a) [3, 7]	Ca2+ signal (% of Cmp 1a) [3, 8]	Ca2+ signal (% of Cmp 1a) [3, 9]	Ca2+ signal (% of Cmp 1a) [3, 10]	Ca2+ signal (% of Cmp 1a) [3, 11]	Ca2+ signal (% of Cmp 1a) [3, 12]	Ca2+ signal (% of Cmp 1a) [3, 13]	Ca2+ signal (% of Cmp 1a) [3, 14]	fold decrease in potency relative to a similar phenyl substituted compound (1.3) ([3]; Ca2+ mobilization EC50)	fold decrease in potency relative to parent compound 1 ([3]; Ca2+ mobilization EC50)
Cc1cc(-c2nc(CC(=O)NC(C)c3ccccc3)no2)cs1 (centres unmarked) [Compound 1.4, CC(C1=CC=CC=C1)NC(CC2=NOC(C3=CSC(C)=C3)=N2)=O]	-1 % of Carbachol and 20 % of Carbachol and -5 % of Carbachol	-0.333 % of Cmp 1a and -4 % of Cmp 1a and -17 % of Cmp 1a	100 % of Cmp 1a and 61 % of Cmp 1a and 92 % of Cmp 1a	100 nM	114 ± 6%	106 % of Cmp 1a and 107 % of Cmp 1a and 115 % of Cmp 1a and 110 % of Cmp 1a	109 % of Cmp 1a and 91 % of Cmp 1a and 131 % of Cmp 1a and 113 % of Cmp 1a	103 % of Cmp 1a and 82 % of Cmp 1a and 119 % of Cmp 1a and 123 % of Cmp 1a	107 % of Cmp 1a and 79 % of Cmp 1a and 97 % of Cmp 1a and 127 % of Cmp 1a	81 % of Cmp 1a and 66 % of Cmp 1a and 80 % of Cmp 1a and 103 % of Cmp 1a	48 % of Cmp 1a and 47 % of Cmp 1a and 54 % of Cmp 1a and 90 % of Cmp 1a	24 % of Cmp 1a and 22 % of Cmp 1a and 35 % of Cmp 1a and 47 % of Cmp 1a	5.33 % of Cmp 1a and 2.67 % of Cmp 1a and 18 % of Cmp 1a and 26 % of Cmp 1a	2.67 % of Cmp 1a (2×) and 7 % of Cmp 1a (2×)	6 % of Cmp 1a and 1.67 % of Cmp 1a and 13 % of Cmp 1a and 4.33 % of Cmp 1a		
CCc1nc(-c2nc(CC(=O)NC(C)c3ccccc3)no2)co1 (centres unmarked) [Compound 1.42, CCC1=NC(=CO1)C2=NC(CC(=O)NC(C)C=3C=CC=CC3)=NO2]	-1.26 % of Carbachol and 0.364 % of Carbachol and 1.26 % of Carbachol	24 % of Cmp 1a and -10 % of Cmp 1a and 49 % of Cmp 1a	76 % of Cmp 1a and 54 % of Cmp 1a and 64 % of Cmp 1a	2000 nM	78 ± 3%	65 % of Cmp 1a and 81 % of Cmp 1a and 83 % of Cmp 1a	44 % of Cmp 1a and 85 % of Cmp 1a and 76 % of Cmp 1a	31 % of Cmp 1a and 75 % of Cmp 1a and 78 % of Cmp 1a	9 % of Cmp 1a and 29 % of Cmp 1a and 21 % of Cmp 1a	-11 % of Cmp 1a and 1.56 % of Cmp 1a and 5.36 % of Cmp 1a	-2.41 % of Cmp 1a and 0.181 % of Cmp 1a and -5 % of Cmp 1a	-4.35 % of Cmp 1a and 3.27 % of Cmp 1a and -5.39 % of Cmp 1a	5 % of Cmp 1a and -2.46 % of Cmp 1a and -2 % of Cmp 1a	-3 % of Cmp 1a and -4 % of Cmp 1a and 0.00955 % of Cmp 1a	-3.77 % of Cmp 1a and 10 % of Cmp 1a and 3.66 % of Cmp 1a		
Cc1cncc(-c2nc(CC(=O)NC(C)c3ccccc3)no2)c1 (centres unmarked) [Compound 1.24, CC(C1=CC=CC=C1)NC(CC2=NOC(C3=CC(C)=CN=C3)=N2)=O]	-0.598 % of Carbachol and 5 % of Carbachol and 4.73 % of Carbachol	5.33 % of Cmp 1a and 17 % of Cmp 1a and -8 % of Cmp 1a	83 % of Cmp 1a and 52 % of Cmp 1a and 78 % of Cmp 1a	1580 nM	91 ± 4%	103 % of Cmp 1a and 95 % of Cmp 1a and 70 % of Cmp 1a and 88 % of Cmp 1a and 90 % of Cmp 1a	68 % of Cmp 1a and 86 % of Cmp 1a and 73 % of Cmp 1a and 72 % of Cmp 1a and 97 % of Cmp 1a	50 % of Cmp 1a and 66 % of Cmp 1a and 58 % of Cmp 1a and 47 % of Cmp 1a and 97 % of Cmp 1a	24 % of Cmp 1a and 41 % of Cmp 1a and 39 % of Cmp 1a and 38 % of Cmp 1a and 62 % of Cmp 1a	1.31 % of Cmp 1a and 19 % of Cmp 1a and 31 % of Cmp 1a and 8.44 % of Cmp 1a and 34 % of Cmp 1a	2.29 % of Cmp 1a and 0.399 % of Cmp 1a and 4 % of Cmp 1a and 2 % of Cmp 1a and 17 % of Cmp 1a	-0.0494 % of Cmp 1a and 2.8 % of Cmp 1a and -5.43 % of Cmp 1a and 8 % of Cmp 1a and 5.52 % of Cmp 1a	-0.83 % of Cmp 1a and 7.38 % of Cmp 1a and -0.358 % of Cmp 1a and 15 % of Cmp 1a and 4 % of Cmp 1a	3.55 % of Cmp 1a and 3 % of Cmp 1a and -1.51 % of Cmp 1a and 6 % of Cmp 1a and 3.35 % of Cmp 1a	2 % of Cmp 1a and 1.41 % of Cmp 1a and 6 % of Cmp 1a and 4 % of Cmp 1a and 3 % of Cmp 1a	4- to 16 fold	
COc1csc(-c2nc(CC(=O)NC(C)c3ccccc3)no2)c1 (centres unmarked) [Compound 1.39, COC1=CSC(=C1)C2=NC(CC(=O)NC(C)C=3C=CC=CC3)=NO2]	-14 % of Carbachol and -1 % of Carbachol and -5.33 % of Carbachol	-8 % of Cmp 1a and 12 % of Cmp 1a and -11 % of Cmp 1a	80 % of Cmp 1a and 95 % of Cmp 1a and 86 % of Cmp 1a	316 nM	123 ± 14%	120 % of Cmp 1a and 97 % of Cmp 1a and 133 % of Cmp 1a	130 % of Cmp 1a and 91 % of Cmp 1a and 148 % of Cmp 1a	122 % of Cmp 1a and 94 % of Cmp 1a and 152 % of Cmp 1a	98 % of Cmp 1a and 72 % of Cmp 1a and 114 % of Cmp 1a	73 % of Cmp 1a and 44 % of Cmp 1a and 79 % of Cmp 1a	38 % of Cmp 1a and 21 % of Cmp 1a and 34 % of Cmp 1a	20 % of Cmp 1a and 15 % of Cmp 1a and 2 % of Cmp 1a	16 % of Cmp 1a and 17 % of Cmp 1a and -3.33 % of Cmp 1a	7 % of Cmp 1a and 12 % of Cmp 1a and -8 % of Cmp 1a	15 % of Cmp 1a and 20 % of Cmp 1a and 0.667 % of Cmp 1a		
Cc1ncc(-c2nc(CC(=O)NC(C)c3ccccc3)no2)s1 (centres unmarked) [Compound 1.34, CC(C1=CC=CC=C1)NC(CC2=NOC(C3=CN=C(S3)C)=N2)=O]	0.0525 % of Carbachol and -0.37 % of Carbachol and -1 % of Carbachol	33 % of Cmp 1a and 16 % of Cmp 1a and 43 % of Cmp 1a	81 % of Cmp 1a and 51 % of Cmp 1a	3980 nM	90 ± 6%	108 % of Cmp 1a and 98 % of Cmp 1a and 84 % of Cmp 1a and 88 % of Cmp 1a	66 % of Cmp 1a and 94 % of Cmp 1a and 68 % of Cmp 1a and 51 % of Cmp 1a	43 % of Cmp 1a and 86 % of Cmp 1a and 38 % of Cmp 1a and 21 % of Cmp 1a	8.56 % of Cmp 1a and 40 % of Cmp 1a and 9.49 % of Cmp 1a and -0.9 % of Cmp 1a	-2.32 % of Cmp 1a and 12 % of Cmp 1a and 4.69 % of Cmp 1a and 1.79 % of Cmp 1a	3 % of Cmp 1a (2×) and -4 % of Cmp 1a and 10 % of Cmp 1a	8 % of Cmp 1a and -0.386 % of Cmp 1a and 18 % of Cmp 1a and 3.4 % of Cmp 1a	15 % of Cmp 1a and -0.802 % of Cmp 1a and 16 % of Cmp 1a and 14 % of Cmp 1a	6.66 % of Cmp 1a and 2 % of Cmp 1a and 14 % of Cmp 1a and 12 % of Cmp 1a	1.77 % of Cmp 1a and 8 % of Cmp 1a and 11 % of Cmp 1a and 6 % of Cmp 1a		3- to 25 fold
